Data: US8691817B2, “Sulfonic amide and sulfoximine-substituted diaryl-dihydropyrimidinones and usage thereof” (Bayer Intellectual Property GmbH, priority 2009, dated 2014)
Values after ≈ are worked out from the molar mass of the structure shown.

What was measured:
[1] = Determination of the solubility in PBS buffer pH 6.5; assay type: physicochemical; conditions: 20° C.
Description: B-7. Determination of the Solubility Reagents Required: • PBS buffer pH 6.5: 90.00 g of NaCl p.a. […] Preparation of the Starting Solution (Original Solution):
10 μl of the original solution are transferred into a microtiter plate, and 1000 μl of PBS buffer pH 6.5 are added.
From each of the sample solutions, 100 μl of the supernatant are removed and diluted 1:5 and 1:100 with DMSO. From each dilution, a sample is transferred into a vessel suitable for HPLC analysis.
The samples are analysed by RP-HPLC. Quantification is carried out using a two-point calibration curve of the test compound in DMSO. The solubility is expressed in mg/liter. Analysis sequence: 1) calibration solution […]; 2) calibration solution 20 μg/ml; 3) sample solution 1:5; 4) sample solution 1:100.

rat hepatocytes = experiment: Hepatocyte assay to determine the metabolic stability; assay type: in vitro ADME; conditions: for Fmax, maximum possible bioavailability after oral administration (well-stirred): rat
Description: Seven samples of the incubation solution are taken in a fixed time pattern for the […] analysis in order to determine the half-life (i.e. the degradation) of the compound in each case. Various clearance parameters (CL) and Fmax values are calculated from this half-life (see below).
The Cl and Fmax values represent a measure of the phase 1 and phase 2 metabolism of the compounds in the hepatocytes. In order to minimize the influence of the organic solvent on the enzymes in the incubation mixtures, this concentration is generally limited to 1% (acetonitrile) or 0.1% (DMSO).
A cell count for hepatocytes in the liver of 1.1*10^8 cells/g of liver is used for calculation for all species and breeds.
The calculated parameters and their meaning are: • Fmax well-stirred [%] maximum possible bioavailability after oral administration • Calculation: (1-CLblood well-stirred/QH)*100 • CLblood well-stirred [L/(h*kg)] calculated blood clearance (well-stirred model) • Calculation: (QH*CL′intrinsic)/(QH+CL′intrinsic) • CL′intrinsic [ml/(min*kg] maximum ability of the liver (of the hepatocytes) to metabolize a compound (on the assumption that the hepatic blood flow is not rate-limiting) • Calculation: CL′intrinsic, apparent*species-specific hepatocyte count [1.1* 10^8/g of liver]*species-specific liver weight [g/kg] • CL′intrinsic, apparent [ml/(min*mg)] normalizes the elimination constant by dividing it by the hepatocyte cell count x (x*10^6/ml) employed • Calculation: ke1 [1/min]/(cell count [x*10^6]/incubation volumes [ml]) • (QH=species-specific hepatic blood flow).

[2] = target: T1, human neutrophil elastase (HNE) (Homo sapiens, UniProt P08246); experiment: In vitro HNE inhibition assay; assay type: biochemical; conditions: HNE concentration of 80 pM; substrate MeOSuc-Ala-Ala-Pro-Val-AMC; 37° C., 2 hours
T1 construct: purchased Serva, Heidelberg
T1 sequence (P08246 30-267): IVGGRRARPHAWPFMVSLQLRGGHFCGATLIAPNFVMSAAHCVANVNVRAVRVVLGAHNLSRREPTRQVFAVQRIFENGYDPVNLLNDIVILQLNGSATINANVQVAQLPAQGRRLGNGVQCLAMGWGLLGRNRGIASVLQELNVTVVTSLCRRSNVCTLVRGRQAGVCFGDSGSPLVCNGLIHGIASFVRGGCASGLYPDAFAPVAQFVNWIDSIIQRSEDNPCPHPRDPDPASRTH
Description: The potency of the compounds of the invention is ascertained in an in vitro inhibition assay. The HNE-mediated amidolytic cleavage of a suitable peptide substrate leads in this connection to an increase in the fluorescent light. The signal intensity of the fluorescent light is directly proportional to the enzyme activity.
Enzyme (80 pM HNE; from Serva, Heidelberg) and substrate (20 μM MeOSuc-Ala-Ala-Pro-Val-AMC; from Bachem, Weil am Rhein) are incubated in an assay volume of in total 50 μl of assay buffer (0.1 M HEPES pH 7.4, 0.5 M NaCl, 0.1% w/v BSA, 1% v/v DMSO) in a 384-well microtiter plate in the presence and absence of the test substance at 37° C. for 2 hours.

SMILES	IC50 [2]	CLblood, calculated blood clearance (well-stirred) (rat hepatocytes; hepatocytes)	Fmax, maximum possible bioavailability after oral administration (well-stirred) (rat hepatocytes)	also measured
CC1=C(C#N)[C@@H](c2ccc(C#N)cc2S(C)(=N)=O)N(C)C(=O)N1c1cccc(C(F)(F)F)c1 (mixture of isomers) [Example 38, (SS)-(4S)-4-[4-Cyano-2-(S-methylsulfonimidoyl)phenyl]-3,6-dimethyl-2-oxo-1-[3-(trifluoromethyl)phenyl]-1,2,3,4-tetrahydropyrimidine-5-carbonitrile or (RS)-(4S)-4-[4-cyano-2-(S-methylsulfonimidoyl)phenyl]-3,6-dimethyl-2-oxo-1-[3-(trifluoromethyl)phenyl]-1,2,3,4-tetrahydropyrimidine-5-carbonitrile]	–	–	–	Solubility ([1]; 24 hours): 300 µg/mL (≈ 634 µM); CLblood, calculated blood clearance (well-stirred) (rat hepatocytes; after incubation with rat hepatocytes): 0 mL/min/kg
CC1=C(C#N)[C@@H](c2ccc(C#N)cc2S(N)(=O)=O)N(C)C(=O)N1c1cccc(C(F)(F)F)c1 [Example 10, 5-Cyano-2-{(4S)-5-cyano-3,6-dimethyl-2-oxo-1-[3-(trifluoromethyl)phenyl]-1,2,3,4-tetrahydropyrimidin-4-yl}benzenesulfonamide]	< 0.3 nM	–	–	–
CC1=C(C#N)[C@@H](c2ccc(C#N)cc2S(=O)(=O)NCC(N)=O)N(C)C(=O)N1c1cccc(C(F)(F)F)c1 [Example 13, N^2-[(5-Cyano-2-{(4S)-5-cyano-3,6-dimethyl-2-oxo-1-[3-(trifluoromethyl)phenyl]-1,2,3,4-tetrahydropyrimidin-4-yl}phenyl)sulfonyl]glycinamide]	< 0.3 nM	31.7 mL/min/kg	54%	–
CC1=C(C#N)[C@@H](c2ccc(C#N)cc2S(=O)(=O)NCCCN2CCCC2=O)NC(=O)N1c1cccc(C(F)(F)F)c1 [Example 14]	4.5 nM	–	–	–
CC1=C(C#N)[C@@H](c2ccc(C#N)cc2S(=O)(=O)NCC2CCN(C)C2)NC(=O)N1c1cccc(C(F)(F)F)c1 (stereo partly drawn) [Example 21, 5-cyano-2-{(4S)-5-cyano-6-methyl-2-oxo-1-[3-(trifluoromethyl)phenyl]-1,2,3,4-tetrahydropyrimidin-4-yl}-N-[(1-methylpyrrolidin-3-yl)methyl]-benzenesulfonamide]	0.7 nM	–	–	–

Continued, in another order:

IC50 [2]	CLblood, calculated blood clearance (well-stirred) (rat hepatocytes; hepatocytes)	Fmax, maximum possible bioavailability after oral administration (well-stirred) (rat hepatocytes)	SMILES	also measured
0.9 nM	0 mL/min/kg	100%	CC1=C(C#N)[C@@H](c2ccc(C#N)cc2S(C)(=N)=O)NC(=O)N1c1cccc(C(F)(F)F)c1 (mixture of isomers) [Example 41, (SS)-(4S)-4-[4-Cyano-2-(S-methylsulfonimidoyl)phenyl]-6-methyl-2-oxo-1-[3-(trifluoromethyl)phenyl]-1,2,3,4-tetrahydropyrimidine-5-carbonitrile or (RS)-(4S)-4-[4-cyano-2-(S-methylsulfonimidoyl)phenyl]-6-methyl-2-oxo-1-[3-(trifluoromethyl)phenyl]-1,2,3,4-tetrahydropyrimidine-5-carbonitrile]	–
0.4 nM	1.7 mL/min/kg	97%	CC1=C(C#N)[C@@H](c2ccc(C#N)cc2S(N)(=O)=O)NC(=O)N1c1cccc(C(F)(F)F)c1 [Example 1, 5-Cyano-2-{(4S)-5-cyano-6-methyl-2-oxo-1-[3-(trifluoromethyl)phenyl]-1,2,3,4-tetrahydropyrimidin-4-yl}benzenesulfonamide]	–
< 0.3 nM	31.7 mL/min/kg	54%	CNS(=O)(=O)c1cc(C#N)ccc1[C@H]1NC(=O)N(c2cccc(C(F)(F)F)c2)C(C)=C1C#N [Example 2, 5-Cyano-2-{(4S)-5-cyano-6-methyl-2-oxo-1-[3-(trifluoromethyl)phenyl]-1,2,3,4-tetrahydropyrimidin-4-yl}-N-methylbenzenesulfonamide]	–
< 0.3 nM	–	–	CC1=C(C#N)[C@@H](c2ccc(C#N)cc2S(=O)(=O)N(C)C)NC(=O)N1c1cccc(C(F)(F)F)c1 [Example 3, 5-Cyano-2-{(4S)-5-cyano-6-methyl-2-oxo-1-[3-(trifluoromethyl)phenyl]-1,2,3,4-tetrahydropyrimidin-4-yl}-N,N-dimethylbenzenesulfonamide]	–
< 0.3 nM	–	–	CC1=C(C#N)[C@@H](c2ccc(C#N)cc2S(=O)(=O)N2CCOCC2)NC(=O)N1c1cccc(C(F)(F)F)c1 [Example 4, (4S)-4-[4-Cyano-2-(morpholin-4-ylsulfonyl)phenyl]-6-methyl-2-oxo-1-[3-(trifluoromethyl)phenyl]-1,2,3,4-tetrahydropyrimidine-5-carbonitrile]	–
< 0.3 nM	–	–	CC1=C(C#N)[C@@H](c2ccc(C#N)cc2S(=O)(=O)NCCO)N(C)C(=O)N1c1cccc(C(F)(F)F)c1 [Example 11, 5-Cyano-2-{(4S)-5-cyano-3,6-dimethyl-2-oxo-1-[3-(trifluoromethyl)phenyl]-1,2,3,4-tetrahydropyrimidin-4-yl}-N-(2-hydroxyethyl)benzenesulfonamide]	solubility at 24 h ([1]; aqueous buffer, kinetic from dmso stock): 300 µg/mL (≈ 577 µM)
